According to the NIST ThermoML archive (doi:10.1021/je049610v):

Tests used:
[1] = xn = mol fraction of the nth substance listed; details: 101 kPa, Liquid
[2] = refractive index (Na D-line) (dimensionless); xn = mol fraction of the nth substance listed; details: 101 kPa, Liquid

ClC(Cl)=C(Cl)Cl [tetrachloroethene] + COc1ccccc1
Details	mass density, 298.15 K [kg/m3]	mass density, 303.15 K [kg/m3]	mass density, 308.15 K [kg/m3]	refractive index, 298.15 K	refractive index, 303.15 K	refractive index, 308.15 K	speed of sound, 298.15 K [m/s]	viscosity, 298.15 K [mPa·s]	viscosity, 303.15 K [mPa·s]	viscosity, 308.15 K [mPa·s]
[1], x2 = 0	1614.7	1606.9	1599	–	–	–	1038	0.861	0.817	0.782
[1], x2 = 0.0979	1548.6	1540.9	1533.6	–	–	–	1065	0.859	0.818	0.776
[1], x2 = 0.1962	1483.4	1476.1	1469	–	–	–	1094	0.854	0.813	0.77
[1], x2 = 0.3035	1413.9	1407	1400.4	–	–	–	1127	0.854	0.811	0.767
[1], x2 = 0.4024	1350.9	1343.5	1337.9	–	–	–	1159	0.861	0.815	0.77
[1], x2 = 0.5044	1286.9	1280.5	1274.6	–	–	–	1195	0.874	0.825	0.776
[1], x2 = 0.6045	1225.3	1219.3	1213.5	–	–	–	1232	0.892	0.839	0.787
[1], x2 = 0.7033	1165.1	1159.6	1154.1	–	–	–	1271	0.909	0.855	0.799
[1], x2 = 0.8036	1105	1099.6	1094.5	–	–	–	1314	0.935	0.877	0.817
[1], x2 = 0.8974	1049.2	1044.8	1039.2	–	–	–	1359	0.961	0.898	0.835
[2], x2 = 0	–	–	–	1.5036	1.501	1.498	–	–	–	–
[2], x2 = 0.0979	–	–	–	1.5044	1.5015	1.4986	–	–	–	–
[2], x2 = 0.1962	–	–	–	1.5053	1.5023	1.4993	–	–	–	–
[2], x2 = 0.3035	–	–	–	1.5065	1.5034	1.5004	–	–	–	–
[2], x2 = 0.4024	–	–	–	1.5075	1.5044	1.5014	–	–	–	–
[2], x2 = 0.5044	–	–	–	1.5086	1.5056	1.5026	–	–	–	–
[2], x2 = 0.6045	–	–	–	1.5099	1.5069	1.504	–	–	–	–
[2], x2 = 0.7033	–	–	–	1.5111	1.5083	1.5054	–	–	–	–
[2], x2 = 0.8036	–	–	–	1.5124	1.5096	1.5068	–	–	–	–
[2], x2 = 0.8974	–	–	–	1.5135	1.5101	1.508	–	–	–	–

COc1ccccc1 [anisole] + ClC(Cl)C(Cl)Cl
x1 = 1
Details	mass density, 298.15 K [kg/m3]	mass density, 303.15 K [kg/m3]	mass density, 308.15 K [kg/m3]	refractive index, 298.15 K	refractive index, 303.15 K	refractive index, 308.15 K	speed of sound, 298.15 K [m/s]	viscosity, 298.15 K [mPa·s]	viscosity, 303.15 K [mPa·s]	viscosity, 308.15 K [mPa·s]
[1]	988.9	984.1	979.4	–	–	–	1410	0.992	0.919	0.853
[2]	–	–	–	1.5148	1.5124	1.5092	–	–	–	–
